Entries after “also recorded” stand apart in the source; their conditions may differ.
Key:
GFP-tagged mGluR2 = experiment: Nanobody-photoswitch conjugate (NPC)-mediated photoswitching of GFP-tagged mGluR2; format: cell-based; conditions: SNAP-tagged anti-GFP nanobody labeled with PORTL
Source text: Finally, a long-term goal of tethered photopharmacology is to incorporate the optical control afforded by such compounds into antibody-mediated targeting of proteins. “Nanobody-photoswitch conjugates” (NPCs) consisting of a SNAP-tagged nanobody labeled with a PORTL have been reported. NPCs containing an anti-GFP nanobody are able to photoactivate GFP-tagged mGluR2, but with limited efficiency (Farrants et al., 2018).

SNAP-mGluR2 = target: T1, SNAP-mGluR2 (Rattus norvegicus, UniProt P31421); experiment: Photoactivation of SNAP-mGluR2 read out as GIRK current, whole cell patch clamp in HEK293 cells; format: cell-based; conditions: specificity: applied to cells expressing SNAP-mGluR2, n=3 cells
T1 construct: expressed in transfected cells; host or cells: HEK293 / HEK 293T, with co-expressed GIRK channel
T1 sequence (P31421 with tags, fused parts or gaps): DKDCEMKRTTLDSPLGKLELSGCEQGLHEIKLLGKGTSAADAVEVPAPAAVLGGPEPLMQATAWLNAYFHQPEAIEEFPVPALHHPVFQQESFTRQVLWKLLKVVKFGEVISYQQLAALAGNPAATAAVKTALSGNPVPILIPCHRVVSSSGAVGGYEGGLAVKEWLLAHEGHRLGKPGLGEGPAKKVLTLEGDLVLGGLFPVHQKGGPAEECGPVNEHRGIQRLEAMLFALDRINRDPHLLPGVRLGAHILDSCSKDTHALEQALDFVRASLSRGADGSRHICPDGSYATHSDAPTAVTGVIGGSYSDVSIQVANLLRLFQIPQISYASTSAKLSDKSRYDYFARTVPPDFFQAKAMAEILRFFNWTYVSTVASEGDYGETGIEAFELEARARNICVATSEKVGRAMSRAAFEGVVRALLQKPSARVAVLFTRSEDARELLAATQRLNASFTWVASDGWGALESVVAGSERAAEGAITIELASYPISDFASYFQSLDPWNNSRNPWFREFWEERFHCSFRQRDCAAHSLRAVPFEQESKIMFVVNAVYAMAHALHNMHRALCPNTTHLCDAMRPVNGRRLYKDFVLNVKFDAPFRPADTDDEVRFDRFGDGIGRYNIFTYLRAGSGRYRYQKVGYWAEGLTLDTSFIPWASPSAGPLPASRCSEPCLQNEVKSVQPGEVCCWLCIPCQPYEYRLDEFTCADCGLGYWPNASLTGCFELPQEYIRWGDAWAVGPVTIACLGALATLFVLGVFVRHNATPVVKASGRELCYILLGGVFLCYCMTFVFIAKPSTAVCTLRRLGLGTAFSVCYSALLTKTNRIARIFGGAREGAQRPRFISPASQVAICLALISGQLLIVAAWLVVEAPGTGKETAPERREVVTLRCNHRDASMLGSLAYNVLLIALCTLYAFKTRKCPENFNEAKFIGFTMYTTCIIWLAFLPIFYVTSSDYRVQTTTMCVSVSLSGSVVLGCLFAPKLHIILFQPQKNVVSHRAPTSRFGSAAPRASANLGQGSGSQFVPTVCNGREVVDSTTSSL
Method: (§1) Whole cell patch clamp recordings from HEK 293T cells were performed 24-48 hours after transfection as previously described (Farrants et al., 2018). Briefly, voltage clamp recordings at −60 mV were performed in a high potassium (120 mM) solution to enable large inward currents upon receptor activation.
(§2) Unless otherwise noted, cells were incubated with 1-10 μM of PORTL for 45-60 min at 37° C. in the appropriate extracellular recording solution. Labeling efficiency was determined as previously described (Levitz et al., 2017). Illumination was applied to the entire field of view using a CoolLED pE-4000 through a 40× objective. Light intensity in the sample plane was 1-2 mW/mm^2. pClamp software was used for both data acquisition and control of illumination. All drugs were purchased from Tocris and applied using a gravity-driven perfusion system.
FIG. 3A-3C. Monovalent BGAG12,460 elicits rat SNAP-mGluR2 and human SNAP-mGluR6 GIRK photo-current in HEK293 cells. FIG. 3A. Group II and III mGluRs, like mGluR2 and 6, respectively, couple to GIRK channels in neurons and this system reconstitutes in non-neuronal cell lines, so that SNAP-mGluR2 or 6 coupled to a BGAG photoswitch will be activated by light and induce hyperpolarizing GIRK current. FIG. 3B. Blue (460 nm) light photo-activates BGAG12,460:SNAP-mGluR2 and elicits an inward K+ current from co-expressed GIRK channel in a HEK293 cell voltage clamped at −60 mV with [K+]in=[K+]out=150 mM. FIG. 3C.
FIG. 4A-4D. Multibranched BGAG12,460 increases potency and sensitivity of SNAP-mGluR2 activation of GIRK channels in HEK293 cells. FIG. 4A. ^4×BGAG12,460 consists of a single BG end for 1:1 attachment to SNAP on each subunit of the mGluR and 4 branches of a 12-PEG linker, with each branch bearing a photoswitchable azobenzene-glutamate (AG). FIG. 4B. […] Dependence of SNAP-mGluR2 photo-activation efficiency, read out as GIRK current, with single, 2-branch and 4-branch BGAG12,460. […]

CLIP-mGluR2 = target: T2, CLIP-mGluR2 (Rattus norvegicus, UniProt P31421); experiment: Photoactivation of CLIP-mGluR2, whole cell patch clamp in HEK 293T cells; format: cell-based
T2 construct: expressed in transfected cells; host or cells: HEK 293T
T2 sequence (P31421 with tags, fused parts or gaps): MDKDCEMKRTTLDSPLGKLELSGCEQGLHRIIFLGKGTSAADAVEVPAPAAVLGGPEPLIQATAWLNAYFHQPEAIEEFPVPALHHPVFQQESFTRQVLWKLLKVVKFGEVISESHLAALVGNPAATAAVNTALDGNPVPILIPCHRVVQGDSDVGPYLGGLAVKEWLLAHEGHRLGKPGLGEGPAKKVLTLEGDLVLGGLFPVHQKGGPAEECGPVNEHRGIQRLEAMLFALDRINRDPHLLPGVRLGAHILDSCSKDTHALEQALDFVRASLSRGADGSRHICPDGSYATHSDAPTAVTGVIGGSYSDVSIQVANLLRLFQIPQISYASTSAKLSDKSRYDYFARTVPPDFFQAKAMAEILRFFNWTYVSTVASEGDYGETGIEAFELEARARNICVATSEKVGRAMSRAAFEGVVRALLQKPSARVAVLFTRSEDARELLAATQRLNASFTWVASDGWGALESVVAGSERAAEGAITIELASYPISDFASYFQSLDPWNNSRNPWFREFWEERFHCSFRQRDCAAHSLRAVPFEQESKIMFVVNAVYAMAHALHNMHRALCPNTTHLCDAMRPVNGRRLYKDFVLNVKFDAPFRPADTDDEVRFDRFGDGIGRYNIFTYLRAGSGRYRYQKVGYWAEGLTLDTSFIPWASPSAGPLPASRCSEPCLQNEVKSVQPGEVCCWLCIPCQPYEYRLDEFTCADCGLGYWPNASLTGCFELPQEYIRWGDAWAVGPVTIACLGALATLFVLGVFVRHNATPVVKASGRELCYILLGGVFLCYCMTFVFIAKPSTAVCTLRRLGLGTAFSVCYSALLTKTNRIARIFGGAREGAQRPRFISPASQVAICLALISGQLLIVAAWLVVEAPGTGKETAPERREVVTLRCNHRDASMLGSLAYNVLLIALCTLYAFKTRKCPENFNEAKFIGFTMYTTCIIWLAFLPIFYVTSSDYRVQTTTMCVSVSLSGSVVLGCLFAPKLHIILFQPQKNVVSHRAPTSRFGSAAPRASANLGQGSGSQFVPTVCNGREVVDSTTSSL
Method: as §1, §2

Halo-mGluR2 = target: T3, Halo-mGluR2 (Rattus norvegicus, UniProt P31421); experiment: Photoactivation and labeling of Halo-mGluR2, whole cell patch clamp in HEK 293T cells; format: cell-based
T3 construct: expressed in transfected cells; host or cells: HEK 293T
T3 sequence (P31421 with tags, fused parts or gaps): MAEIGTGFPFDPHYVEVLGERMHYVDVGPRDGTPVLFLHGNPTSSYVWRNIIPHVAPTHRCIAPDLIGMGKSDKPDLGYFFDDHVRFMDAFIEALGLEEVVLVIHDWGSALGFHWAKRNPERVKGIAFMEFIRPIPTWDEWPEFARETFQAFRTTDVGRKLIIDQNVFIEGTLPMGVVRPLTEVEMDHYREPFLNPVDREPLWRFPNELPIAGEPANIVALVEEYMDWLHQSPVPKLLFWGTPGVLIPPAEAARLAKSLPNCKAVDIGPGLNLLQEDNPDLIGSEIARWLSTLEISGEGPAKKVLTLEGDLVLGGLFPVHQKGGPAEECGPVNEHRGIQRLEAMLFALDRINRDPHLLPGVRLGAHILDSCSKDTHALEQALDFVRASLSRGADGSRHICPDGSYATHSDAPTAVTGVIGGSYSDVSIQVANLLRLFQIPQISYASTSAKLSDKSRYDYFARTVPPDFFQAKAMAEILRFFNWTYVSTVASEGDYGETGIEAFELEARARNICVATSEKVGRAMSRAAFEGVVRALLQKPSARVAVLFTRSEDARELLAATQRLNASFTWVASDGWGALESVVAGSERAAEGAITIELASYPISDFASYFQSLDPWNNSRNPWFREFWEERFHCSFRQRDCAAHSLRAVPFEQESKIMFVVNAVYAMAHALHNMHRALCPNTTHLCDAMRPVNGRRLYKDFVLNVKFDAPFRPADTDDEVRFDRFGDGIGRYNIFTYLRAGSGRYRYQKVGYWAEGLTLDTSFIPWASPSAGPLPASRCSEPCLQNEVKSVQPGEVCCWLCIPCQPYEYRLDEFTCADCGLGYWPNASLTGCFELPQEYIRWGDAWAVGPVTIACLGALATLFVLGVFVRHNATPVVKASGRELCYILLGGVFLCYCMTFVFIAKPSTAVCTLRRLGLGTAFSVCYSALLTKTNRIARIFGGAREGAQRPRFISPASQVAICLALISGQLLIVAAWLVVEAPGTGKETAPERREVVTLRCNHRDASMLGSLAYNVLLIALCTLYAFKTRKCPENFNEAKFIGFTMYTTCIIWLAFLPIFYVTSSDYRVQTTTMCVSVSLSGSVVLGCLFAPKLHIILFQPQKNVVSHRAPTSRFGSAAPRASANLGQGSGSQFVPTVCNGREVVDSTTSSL
Method: as §1, §2
With the goal of further expanding the repertoire of PORTLs to a third self-labelling, orthogonal suicide enzyme, the Halo-tag, which reacts specifically with alkyl chlorides (Los et al., 2008), was used. […] Based on the hypothesis that branching Halo-targeting PORTLs would enhance photoswitching, “doubleClAG12” (^2×ClAG12) (Scheme S8 (FIG. 1H); FIG. 2E) was synthesized. […]

[1] = test system: rd1 animals expressing medium wave cone opsin in RGCs; experiment: Line pattern recognition in moving displays, medium wave cone opsin in RGCs; format: in vivo, mouse; conditions: expressed in RGCs of rd1 animals
Source text: The kinetics of onset, decay and recovery of the restored light response are expected to affect the ability to recognize a visual pattern. […] Thus, the speed limit of ^4×BGAG12,460:SNAP-mGluR2 in RGCs is ≥8 cm/s, whereas that of medium wave cone opsin in RGCs is ≤4 cm/s.

[2] = test system: rd1 animals expressing medium wave cone opsin in RGCs; conditions: Berry et al. (2019); cited from earlier work
[3] = test system: RGCs from isolated rd1 retina; experiment: MEA recordings of RGCs from isolated rd1 retina; format: cell-based, mouse; conditions: 1 s light flashes
Source text: FIG. 10A-10C. MEA recordings of RGCs from isolated rd1 retina with either BGAG12,460:SNAP-mGluR2 or medium wave cone opsin in RGCs. A) Superimposed average responses to 1 s light flashes in dozens of RGCs in 3 representative retinas isolated from: wildtype mice (Wt; red), rd1 mice expressing medium wave (MW) cone opsin in RGCs (black), and rd1 mice expressing SNAP-mGluR2 in RGCs (blue) following intravitreal injection of BGAG12,460. […] B) Blue light activation of BGAG12,460:SNAP-mGluR2 evokes an immediate inhibition with a sustained amplitude during illumination, followed by a transient excitatory rebound after termination of illumination. […] As light pulses are shortened, the delay to peak response increases and deactivation slows, (from (Berry et al. (2019) supra).

Molecule: Nc1nc(OCc2ccc(CNC(=O)CCCC(=O)NCCOCCOCCOCCOCCOCCOCCOCCOCCOCCOCCOCCOCCC(=O)N[C@H](CCC(=O)NCC(=O)Nc3ccc(/N=N/c4ccc(NC(=O)CCC[C@@H](C[C@H](N)C(=O)O)C(=O)O)cc4)cc3)C(=O)NCC(=O)Nc3ccc(/N=N/c4ccc(NC(=O)CCC[C@@H](C[C@H](N)C(=O)O)C(=O)O)cc4)cc3)cc2)c2nc[nH]c2n1 [^2×BGAG12]
- photoswitch efficiency of NPC-mediated photoswitching of mGluR2 (GFP-tagged mGluR2): doubled the photoswitch efficiency

Molecule: Nc1ccnc(OCc2ccc(CNC(=O)CCC(=O)N3Cc4ccccc4-c4nnn(CCOCCOCCOCCOCCOCCOCCOCCOCCOCCOCCOCCOCCC(=O)N[C@H](CCC(=O)NCC(=O)Nc5ccc(/N=N/c6ccc(NC(=O)CCC[C@@H](C[C@H](N)C(=O)O)C(=O)O)cc6)cc5)C(=O)NCC(=O)Nc5ccc(/N=N/c6ccc(NC(=O)CCC[C@@H](C[C@H](N)C(=O)O)C(=O)O)cc6)cc5)c4-c4ccccc43)cc2)n1 [^2×BCAG12]
- photocurrent relative to 1 mM glutamate (SNAP-mGluR2): 2.8±0.3%
- optical control / efficiency of photoactivation of CLIP-mGluR2 (CLIP-mGluR2): near-complete optical control; also recorded: enhances efficiency of CLIP-mGluR2 photoactivation compared to BCAG12

Molecule: N[C@@H](C[C@H](CCCC(=O)Nc1ccc(/N=N/c2ccc(NC(=O)CNC(=O)CCOCCOCCOCCOCCOCCOCCOCCOCCOCCOCCOCCOCCNC(=O)CCCC(=O)NCCOCCOCCCCCCCl)cc2)cc1)C(=O)O)C(=O)O [ClAG12, (2S,4S)-2-Amino-4-(4-((4-((E)-(4-(61-chloro-4,44,48-trioxo-7,10,13,16,19,22,25,28,31,34,37,40,52,55-tetradecaoxa-3,43,49-triazahenhexacontanamido)phenyl)diazenyl)phenyl)amino)-4-oxobutyl)pentanedioic acid]
- photoactivation of Halo-mGluR2 (Halo-mGluR2): showed photoactivation of mGluR2

B1: medium wave cone opsin: medium wave (MW) cone opsin expressed in RGCs of rd1 mice, comparator light-activated GPCR (protein, UniProt O35599 1-359, looked up)
Medium-wave-sensitive opsin 1: MAQRLTGEQTLDHYEDSTHASIFTYTNSNSTKGPFEGPNYHIAPRWVYHLTSTWMILVVVASVFTNGLVLAATMRFKKLRHPLNWILVNLAVADLAETIIASTISVVNQIYGYFVLGHPLCVIEGYIVSLCGITGLWSLAIISWERWLVVCKPFGNVRFDAKLATVGIVFSWVWAAIWTAPPIFGWSRYWPYGLKTSCGPDVFSGTSYPGVQSYMMVLMVTCCIFPLSIIVLCYLQVWLAIRAVAKQQKESESTQKAEKEVTRMVVVMVFAYCLCWGPYTFFACFATAHPGYAFHPLVASLPSYFAKSATIYNPIIYVFMNRQFRNCILHLFGKKVDDSSELSSTSKTEVSSVSSVSPA
- line pattern recognition when the display moved at 4 cm/s [1]: performed at the level of the untreated rd1 animals
- speed limit of line pattern recognition in moving displays [1]: ≤ 4 cm/s
- line pattern recognition when the displays move at 1 cm/s [2]: perform well
- latency of RGC response to light onset [3]: delayed response

— patent publication US12076329B2, “Compositions and methods for enhancing visual function” (The Regents of the University of California, priority 2020, dated 2024)
